From patent US9187424B1, “Aryl dihydropyridinones and piperidinone MGAT2 inhibitors” (Bristol-Myers Squibb Company, priority 2011, dated 2015)

Target: Human MGAT-2 (Homo sapiens (Human), UniProt Q3SYC2)
Assay: MGAT LCMS Assay (human MGAT-2);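 further: diolein product quantified by LC/MS with positive APCI, expressed as peak area ratio versus an internal standard, and this ratio used to derive IC50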
Type: biochemical
Conditions: human MGAT-2 membranes expressed in Sf9 cells; 2-oleoylglycerol and oleoyl-Coenzyme A; read-out: h-MGAT2 IC50 (nM) LCMS Assay

Chain of Human MGAT-2 (Q3SYC2 whole entry): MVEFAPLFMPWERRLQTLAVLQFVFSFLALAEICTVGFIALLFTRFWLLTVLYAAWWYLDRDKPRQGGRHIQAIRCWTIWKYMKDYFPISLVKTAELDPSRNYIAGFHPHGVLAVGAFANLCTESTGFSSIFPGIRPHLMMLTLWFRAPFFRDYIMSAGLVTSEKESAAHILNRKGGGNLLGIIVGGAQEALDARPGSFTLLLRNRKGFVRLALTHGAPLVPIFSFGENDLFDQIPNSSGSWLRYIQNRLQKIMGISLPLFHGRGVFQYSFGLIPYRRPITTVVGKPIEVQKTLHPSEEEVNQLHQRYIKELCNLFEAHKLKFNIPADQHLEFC

IC50 [nM] | Structure (SMILES)
5120 | Cc1ccc(C2=C(NC(=O)c3cocn3)C(=O)NC(c3ccc(OCCCC(F)(F)F)cc3)(C(F)(F)F)C2)cc1 (stereo not shown) [Example 151]
252 | Cc1ccc(C2=C(NC(=O)c3cnco3)C(=O)NC(c3ccc(OCCCC(F)(F)F)cc3)(C(F)(F)F)C2)cc1 (stereo not shown) [Example 152]
247 | Cc1ccc(C2=C(NC(=O)c3cnccn3)C(=O)NC(c3ccc(OCCCC(F)(F)F)cc3)(C(F)(F)F)C2)cc1 (stereo not shown) [Example 153]
484 | CCCCCCNC(=O)c1ccc(C2(C(F)(F)F)CC(c3ccc(C)cc3)=C(C(=O)Nc3ccc(OC)cc3)C(=O)N2)cc1 (stereo not shown) [Example 155]
254 | Cc1ccc(C2=C(c3nnn[nH]3)C(=O)NC(c3ccc(OCCCC(F)(F)F)cc3)(C(F)(F)F)C2)c(C)c1 (stereo not shown) [Example 156]
16700 | Cc1ccc(C2=C(n3cnnn3)C(=O)NC(c3ccc(OCCCC(F)(F)F)cc3)(C(F)(F)F)C2(F)F)cc1 (stereo not shown) [Example 159]
5400 | Cc1ccc(C2=C(C#N)C(=O)NC(c3ccc(OCCCC(F)(F)F)cc3)(C(F)(F)F)C2(F)F)cc1 (stereo not shown) [Example 160]
1260 | CCCCCNC(=O)c1ccc(C2(C)CC(c3ccc(C)cc3)=C(C(=O)Nc3ccc(OC)cc3)C(=O)N2)cc1 (stereo not shown) [Example 161]
214 | COc1ccc(C(=O)NC2=C(c3ccc(C)cc3)C(F)(F)C(c3ccc(OCCC(F)(F)F)cc3)(C(F)(F)F)NC2=O)cc1 (stereo not shown) [Example 162]
162 | COc1ccc(C(=O)NC2=C(c3ccc(C)cc3)C(F)(F)C(c3ccc(OCCCCC(F)(F)F)cc3)(C(F)(F)F)NC2=O)cc1 (stereo not shown) [Example 164]
113 | Cc1ccc(C2=C(NC(=O)c3ccccc3Cl)C(=O)NC(c3ccc(OCCCC(F)(F)F)cc3)(C(F)(F)F)C2)cc1 (stereo not shown) [Example 168]
421 | Cc1ccc(C2=C(NC(=O)c3cccc(Cl)c3)C(=O)NC(c3ccc(OCCCC(F)(F)F)cc3)(C(F)(F)F)C2)cc1 (stereo not shown) [Example 169]
210 | Cc1ccc(C2=C(NC(=O)c3ccc(F)cc3Cl)C(=O)NC(c3ccc(OCCCC(F)(F)F)cc3)(C(F)(F)F)C2)cc1 (stereo not shown) [Example 170]
264 | COc1ccc(NC(=O)C2=C(c3ccc(C)cc3)CC(C)(C(=O)NCCCc3ccccc3)NC2=O)cc1 (stereo not shown) [Example 175]
3 | COc1ccc(C2=C(NC(=O)c3cc(C)no3)C(=O)NC(c3ccc(OCCCC(F)(F)F)cc3)(C(F)(F)F)C2)cc1 (stereo not shown) [Example 176]
399 | CCCCCCCCNC(=O)C1(C)CC(c2ccc(C)cc2)=C(C#N)C(=O)N1 (stereo not shown) [Example 177]
2050 | COc1ccc(NC(=O)C2=C(c3ccc(C)cc3)C(F)(F)C(c3ccc(OC)cc3)(C(F)(F)F)NC2=O)cc1 (stereo not shown) [Example 181]
2050 | COc1ccc(Cn2cc(C3(C(F)(F)F)CC(c4ccc(C)cc4)=C(c4nn[nH]n4)C(=O)N3)cn2)cc1 (stereo not shown) [Example 182]
76 | Cc1ccc(C2=C(C#N)C(=O)NC(c3ccc(OCCCCCC(F)(F)F)cc3)(C(F)(F)F)C2)cc1 (stereo not shown) [Example 184]
121 | Cc1ccc(C2=C(NC(=O)c3cc(-c4ccccc4Cl)no3)C(=O)NC(c3ccc(OCCCC(F)(F)F)cc3)(C(F)(F)F)C2)cc1 (stereo not shown) [Example 185]
229 | Cc1ccc(C2=C(n3cnnc3C)C(=O)NC(c3ccc(OCCCC(F)(F)F)cc3)(C(F)(F)F)C2)cc1 (stereo not shown) [Example 186]
4 | COc1cc(C(=O)NC2=C(c3ccc(C)cc3)CC(c3ccc(OCCCC(F)(F)F)cc3)(C(F)(F)F)NC2=O)on1 (stereo not shown) [Example 187]

IC50 [nM] | Structure (SMILES)
1520 | COc1ccc(NC(=O)C2=C(c3ccc(C)cc3)CC(C)(C(=O)NCC(C)C)NC2=O)cc1 (stereo not shown) [Example 188]
1160 | COc1ccc(NC(=O)C2=C(c3ccc(C)cc3)CC(C)(C(=O)NCc3ccccc3)NC2=O)cc1 (stereo not shown) [Example 189]
155 | Cc1ccc(C2=C(NC(=O)c3cc(-c4cccc(F)c4)no3)C(=O)NC(c3ccc(OCCCC(F)(F)F)cc3)(C(F)(F)F)C2)cc1 (stereo not shown) [Example 190]
797 | CCCCCCC(=O)CNC(=O)C1(C)CC(c2ccc(C)cc2)=C(NC(=O)c2ccc(OC)cc2)C(=O)N1 (stereo not shown) [Example 191]
433 | Cc1ccc(C2=C(NC(=O)n3ncnn3)C(=O)NC(c3ccc(OCCCC(F)(F)F)cc3)(C(F)(F)F)C2)cc1 (stereo not shown) [Example 192]
46 | COc1ccc(C2=C(c3nn[nH]n3)C(=O)NC(c3ccc(OCCCC(F)(F)F)cc3)(C(F)(F)F)C2)cc1 (stereo not shown) [Example 193]
6 | CCCCCC#CC1(C(F)(F)F)CC(c2ccc(C)cc2)=C(c2cn[nH]n2)C(=O)N1 (stereo not shown) [Example 194]
33 | CCCCCCCC#CC1(C(F)(F)F)CC(c2ccc(C)cc2)=C(c2cn[nH]n2)C(=O)N1 (stereo not shown) [Example 195]
826 | CCCCCCCC#CC1(C(F)(F)F)CC(c2ccc(C)cc2)=C(c2cn[nH]n2)C(=O)N1 (stereo not shown) [Example 196]
178 | Cc1ccc(C2=C(c3cn[nH]n3)C(=O)NC(C#CC3CC3)(C(F)(F)F)C2)cc1 (stereo not shown) [Example 197]
16 | Cc1ccc(C2=C(c3cn[nH]n3)C(=O)NC(C#CCCc3ccccc3)(C(F)(F)F)C2)cc1 (stereo not shown) [Example 198]
16 | Cc1ccc(C2=C(c3cn[nH]n3)C(=O)NC(C#CCCC(C)C)(C(F)(F)F)C2)cc1 (stereo not shown) [Example 199]
37 | Cc1ccc(C2=C(NC(=O)c3ccc(OC(F)(F)F)cc3)C(=O)NC(c3cnn(CCCCCC(F)(F)F)c3)(C(F)(F)F)C2)cc1 (stereo not shown) [Example 200]
24 | Cc1ccc(C2=C(NC(=O)c3ccc(OC(F)F)cc3)C(=O)NC(c3cnn(CCCCCC(F)(F)F)c3)(C(F)(F)F)C2)cc1 (stereo not shown) [Example 201]
89 | COCc1ccc(C2=C(c3nn[nH]n3)C(=O)NC(c3ccc(OCCCC(F)(F)F)cc3)(C(F)(F)F)C2)cc1 (stereo not shown) [Example 202]
59 | CCOCc1ccc(C2=C(c3nn[nH]n3)C(=O)NC(c3ccc(OCCCC(F)(F)F)cc3)(C(F)(F)F)C2)cc1F (stereo not shown) [Example 203]
13 | O=C1NC(c2ccc(OCCCC(F)(F)F)cc2)(C(F)(F)F)CC(c2ccc(OC(F)F)cc2)=C1c1nn[nH]n1 (stereo not shown) [Example 205]
11 | O=C1NC(c2ccc(OCCCC(F)(F)F)cc2)(C(F)(F)F)CC(c2ccc3ccccc3c2)=C1c1nn[nH]n1 (stereo not shown) [Example 207]
30 | CCOc1ccc(C2=C(c3nn[nH]n3)C(=O)NC(c3ccc(OCCCC(F)(F)F)cc3)(C(F)(F)F)C2)cc1 (stereo not shown) [Example 208]
37 | O=C1NC(c2ccc(OCCCC(F)(F)F)cc2)(C(F)(F)F)CC(c2ccc3c(c2)OCCO3)=C1c1nn[nH]n1 (stereo not shown) [Example 209]
2 | O=C1NC(c2ccc(OCCCC(F)(F)F)cc2)(C(F)(F)F)CC(c2ccc3c(c2)CCCC3)=C1c1nn[nH]n1 (stereo not shown) [Example 210]
97 | O=C1NC(c2ccc(OCCCC(F)(F)F)cc2)(C(F)(F)F)CC(c2ccc3c(c2)OCO3)=C1c1nn[nH]n1 (stereo not shown) [Example 211]

IC50 [nM] | Structure (SMILES)
416 | COc1ccc(C2=C(c3nn[nH]n3)C(=O)NC(c3ccc(OCCCC(F)(F)F)cc3)(C(F)(F)F)C2)c2c1CCC2 (stereo not shown) [Example 212]
1100 | Cc1ccc(C2=C(c3nn[nH]n3)C(=O)NC(c3ccc(OCCCC(F)(F)F)cc3)(C(F)F)C2)cc1 (stereo not shown) [Example 213]
12 | COc1ccc(C(=O)NC2=C(c3ccc(C)cc3)CC(c3ccc(OCCCC(F)(F)F)cc3)NC2=O)cc1 (stereo not shown) [Example 214]
11 | COc1ccc(C2=C(C#N)C(=O)NC(c3ccc(OCCCC(F)(F)F)cc3)(C(F)(F)F)C2)cc1C (stereo not shown) [Example 215]
440 | COc1ccc(C2=C(C#N)C(=O)NC(c3ccc(OCCCC(F)(F)F)cc3)(C(F)(F)F)C2)cc1OC (stereo not shown) [Example 216]
118 | Cc1ccc(C2=C(C#N)C(=O)NC(c3ccc(OCCCC(F)(F)F)cc3)(C(F)(F)F)C2)cc1C (stereo not shown) [Example 217]
166 | COc1ccc(C2=C(C#N)C(=O)NC(c3ccc(OCCCC(F)(F)F)cc3)(C(F)(F)F)C2)cc1F (stereo not shown) [Example 218]
172 | Cc1ccc(C2=C(C#N)C(=O)NC(c3ccc(OCCCC(F)(F)F)cc3)(C(F)(F)F)C2)cc1F (stereo not shown) [Example 219]
13 | N#CC1=C(c2ccc(Cl)c(F)c2)CC(c2ccc(OCCCC(F)(F)F)cc2)(C(F)(F)F)NC1=O (stereo not shown) [Example 220]
152 | Cc1cc(C2=C(C#N)C(=O)NC(c3ccc(OCCCC(F)(F)F)cc3)(C(F)(F)F)C2)ccc1Cl (stereo not shown) [Example 221]
733 | N#CC1=C(c2ccc(Cl)c(Cl)c2)CC(c2ccc(OCCCC(F)(F)F)cc2)(C(F)(F)F)NC1=O (stereo not shown) [Example 222]
112 | COc1ccc(C2=C(C#N)C(=O)NC(c3ccc(OCCCC(F)(F)F)cc3)(C(F)(F)F)C2)cc1Cl (stereo not shown) [Example 223]
206 | CCOc1ccc(C2=C(C#N)C(=O)NC(c3ccc(OCCCC(F)(F)F)cc3)(C(F)(F)F)C2)cc1Cl (stereo not shown) [Example 226]
63 | Cc1ccc(C2=C(C#N)C(=O)NC(c3cnn(CCCCC(F)(F)F)c3)(C(F)(F)F)C2)cc1 (stereo not shown) [Example 227]
7 | COc1ccc(C(=O)NC2=C(c3ccc(C)cc3)CC(c3cnn(CCCCCC(F)(F)F)c3)(C(F)(F)F)NC2=O)cc1 (stereo not shown) [Example 228]
25 | COc1ccc(C(=O)NC2=C(c3ccc(C)cc3)CC(c3cnn(CCCCC(F)(F)F)c3)(C(F)(F)F)NC2=O)cc1 (stereo not shown) [Example 229]
1530 | CCCCCn1cc(C2(C(F)(F)F)CC(c3ccc(C)cc3)=C(C#N)C(=O)N2)cn1 (stereo not shown) [Example 230]
34 | Cc1ccc(C2=C(NC(=O)c3ccn(C)n3)C(=O)NC(c3ccc(OCCCC(F)(F)F)cc3)(C(F)(F)F)C2)cc1 (stereo not shown) [Example 231]
6 | COc1ccc(C(=O)NC2=C(c3ccc(C)cc3)CC(c3ccc(OCCCC(F)(F)F)cc3)(C(F)(F)F)NC2=O)nn1 (stereo not shown) [Example 232]
639 | Cc1ccc(C2=C(c3nn[nH]n3)C(=O)NC(c3ccc(Br)cc3)(C(F)(F)F)C2)cc1 (stereo not shown) [Example 233]
40 | O=C1NC(c2ccc(OCCCC(F)(F)F)cc2)(C(F)(F)F)CC(c2ccc(Br)cc2)=C1c1nn[nH]n1 (stereo not shown) [Example 234]
22 | O=C1NC(c2ccc(OCCCC(F)(F)F)cc2)(C(F)(F)F)CC(c2ccc(C3CC3)cc2)=C1c1nn[nH]n1 (stereo not shown) [Example 235]

Structure (SMILES) | IC50 [nM]
COOSNc1ccc(C2=C(C#N)C(=O)NC(c3ccc(OCCCC(F)(F)F)cc3)(C(F)(F)F)C2)cc1 (stereo not shown) [Example 225] | 889
